Data set [1] concerns HCV genotype 2a subgenomic replicon. The data set can be described thus: HCV genotype 2a subgenomic replicon in Huh-7 cells, NS3 protease activity readout. It counts as cell-based. How it is done: (§1) The antiviral activity of compound (1) against HCV genotype 2a was tested in cells chronically infected with the genotype 2a virus as well as in cells replicating a subgenomic 2a replicon. Huh-7 cells containing chronically replicating HCV genotype 2a (J6/JFH-Rluc) virus or subgenomic replicons were cultured with compound (1) or 2′CMeA for 3 days in the absence of human serum albumin. After cultivation, the amount of luciferase in 2a-virus containing cells and HCV NS3 protease activity in the 2a replicon-containing cells was determined using Promega's luciferase assay and a novel time-resolved fluorescence assay, respectively.
(A replicon is a self-replicating genome or part of one, used to study replication in cells.)

Data set [2] concerns SL3 cells. The data set can be described thus: Cytotoxicity, CellTiter-Glo Luminescence Cell Viability assay, SL3. It is filed as cell-based. Particulars: HCV replicon-containing cell line. In general terms: Cellular ATP, detected with luciferase, serves as a proxy for viable cell number.
Data set [3] relates to HepG2 cells. Nature of the data set: Cytotoxicity, CellTiter-Glo Luminescence Cell Viability assay, HepG2. It counts as cell-based.
For data set [4], the system named is HCV genotype 1a (H77/neo) replicon. The data set can be described thus: HCV genotype 1a (H77/neo) replicon, quantitative real-time PCR assay. It is filed as cell-based. Particulars: 3 days, absence of HSA. How it is done:
(§2) HCV genotype 1b (Con-1/lucneo) and 1a (H77/neo) replicon cells were incubated with serial dilutions of compound (1) 2′C-methyl adenosine (2′CMeA) or IFNα for 3 days in the absence or presence of 40 mg/mL human serum albumin (HSA).

For data set [5], the system named is MT4 cells. The data set can be described thus: Cytotoxicity, CellTiter-Glo Luminescence Cell Viability assay, MT4. It counts as cell-based.
Data set [6] concerns HCV genotype 1b (Con-1/lucneo) replicon. It is filed as cell-based. How it is done:
as §2

The test system of data set [7] is MH4 cells. The data set can be described thus: Cytotoxicity, CellTiter-Glo Luminescence Cell Viability assay, MH4. It counts as cell-based. As to conditions: HCV replicon-containing cell line.
For data set [8], the system named is HCV genotype 2a (J6/JFH-Rluc) virus. The data set can be described thus: Huh-7 cells chronically infected with HCV genotype 2a (J6/JFH-Rluc) virus, luciferase assay. As to conditions: 3 days, absence of HSA. It is filed as cell-based. The procedure:
as §1

The test system of data set [9] is Huh-7 lucneo cells. The data set can be described thus: Cytotoxicity, CellTiter-Glo Luminescence Cell Viability assay, Huh-7 lucneo. It is filed as cell-based.
The subject of data set [10] is HCV genotype 1. The data set can be described thus: Phase-1 first-in-human trial, antiviral activity (HCV RNA decline). As to conditions: following single-dose exposure. It counts as in vivo.
Description: (§3) A randomized, double-blind, placebo controlled trial was designed to evaluate the safety/tolerability, phamacokinetics and antiviral activity of single (in Part A) and multiple (in Part B) doses of Compound (1) (oleic acid solution, above) in subjects chronically infected with HCV genotype 1 (GT-1) without decompensated cirrhosis.
(§4) In ongoing Part B, four successive cohorts of 12 subjects are randomized (10:2) to receive multiple ascending doses of Compound 1 (40 mg BID, 120 mg BID, 240 mg QD, 240 mg BID) or placebo, over 8 days.
A short description of data set [11]: Phase-1 first-in-human trial, pharmacokinetics. It counts as in vivo.
Description: as §3, §4
The subject of data set [12] is HCV replicon. Nature of the data set: Anti-HCV replicon activity compared with prior art compound of formula (4). It counts as cell-based. The text has this: The anti-HCV replicon activity of compound (1) was compared to that of a prior art (WO 05/063744) compound, the compound of formula (4)
In data set [13] the test system is HCV replicon cells. The data set can be described thus: In vitro combination study with IFN-α in replicon cells (MacSynergy). It is filed as cell-based. As to conditions: MacSynergy analysis. How it is done: Pegylated interteron-α (PEG-IFN-α), in combination with ribavirin, represents the current standard of care for HCV-infected patients. In vitro combination studies of compound (1) and IFN-α were performed in replicon cells. Data was analyzed using the MacSynergy template developed by Prichard and Shipman.

Data set [14] can be described thus: Phase-1 first-in-human trial, safety/tolerability. It counts as in vivo.
Description: as §3, §4
Data set [15] can be described thus: Intrinsic solubility and pH solubility profile. It counts as physicochemical. As to conditions: pH 7.3.
[16] abbreviates: non-replicon-containing cell line.

Like-named read-outs stand apart in the source and are kept apart here.

What is called CC50 is the concentration giving 50% cytotoxicity. In the case of `C[C@@]1(O)[C@H](O)[C@@H](CO)O[C@H]1n1cnc2c(N)ncnc21` [2′CMeA, 2′C-methyl adenosine, reference compound], the EC50 in [1] (Huh-7 cells, 3 days, absence of HSA, read-out: EC50 HCV 2a (subgenomic replicon)) is 1.61 ± 1.1 µM; in data set [4], 170 nM; in data set [6] (3 days, absence of HSA, read-out: EC50 HCV 1b-lucneo (subgenomic replicon)), 175 ± 70 nM; in data set [6] (read-out: EC50 HCV 1b-lucneo 40 mg/mL HSA, 3 days, presence of 40 mg/mL human serum albumin), 250 nM; in data set [8] (read-out: EC50 HCV-2a (reporter virus)), 194 ± 26 nM. The CC50 in data set [2] was found to be 3.9 µM; in data set [3] (setting [16]) it was 24.3 ± 2.1 µM; in data set [5] (setting [16]), 3.5 ± 1.9 µM; in [7] it was 16 µM; in [9] (HCV replicon-containing cell line), 7.2 ± 6 µM.
On to `Fc1ccccc1-c1nc2ccn(Cc3ccc(-c4ccc(C(F)(F)F)cc4C(F)(F)F)nn3)cc-2n1` [Compound 1, 5-({6-[2,4-bis(trifluoromethyl)phenyl]pyridazin-3-yl}methyl)-2-(2-fluorophenyl)-5H-imidazo[4,5-c]pyridine], for which the EC50 worked out at 21.9 ± 19 µM in data set [1] (Hepatitis C virus, 72 h, Huh-7 cells, 3 days, absence of HSA, read-out: EC50 HCV 2a (subgenomic replicon)) and 21.9 µM in data set [1] (Hepatitis C virus, Huh-7, 72 h, read-out: EC50 2a subgenomic replicon model). In addition, the “anti-HCV replicon activity against genotype 2a” value in data set [1] (compared with genotypes 1a and 1b) is on record as “substantially less active”. Moreover, the “time of maximal antiviral effect” value in data set [10] turned out to be 24 h. Further, in data set [11] (240 mg fasted single dose), the “mean concentration 24 hours after dosing relative to protein binding adjusted in vitro HCV GT-1b Replicon EC50” value is listed as about 7 fold. Moreover, the “increase of systemic exposure when administered with a high fat meal” value in [11] (HCV GT-1 infected subjects, single dose with food versus fasted) was “approximately 2 fold”. Further, the CC50 in data set [2] and in data set [7] was over 50 µM in each case. Also, the “cytotoxicity in HepG2 cells” value in data set [3] (human) was > 50,000 nM. For the same compound, the “times more potent than the compound of formula (4)” value in data set [12] was “about 330 times”. The “interaction between compound (1) and IFN-α” value in data set [13] is recorded as “additive interaction”. Moreover, the “tolerability of single doses” value in [14] (single doses 40-480 mg, HCV GT-1 infected subjects, no serious or treatment-limiting adverse events) is reported as “well tolerated”. In addition, the “treatment emergent laboratory abnormalities” value in data set [14] (single doses, Part A) is listed as “no Grade 3 or 4 treatment emergent laboratory abnormalities”. Further, the “most common adverse event” value in data set [14] (single doses, Part A, all AEs mild except one moderate headache) was “headache”. Moreover, in data set [5] (human), the “cytotoxicity in MT4 cells” value is listed as > 50,000 nM. In addition, in data set [6] (CC50 in cell lines versus EC50 in HCV-1b and HCV-1a replicons), the “selectivity index (CC50/EC50)” value is on record as 13,000-80,000. For the same compound, in [15], the “pH solubility profile, geometric mean (3 lots)” value was found to be 0.7 micrograms/ml. In data set [9] (50 μM, any of the cell lines Huh-7, SL3, MH4, HepG2, MT4), the “toxic effects at the highest concentration tested” value is recorded as “No toxic effects”. The “cytotoxicity in Huh-7 cells” value in [9] (human, Huh-7 lucneo cells (HCV replicon-containing)) is listed as > 50,000 nM.
In the case of IFN-α, the “EC50 HCV 1b-lucneo (subgenomic replicon)” value in data set [6] (3 days, absence of HSA) turned out to be 2 IU/mL. The “EC50 HCV-2a (reporter virus)” value in data set [8] turned out to be 1.2 IU/mL.

The values are drawn from US8569487B2, “Pyridazine compound and use thereof” (priority 2006, dated 2013).
